Measurements published in US20250025484A1, “POLYMERSOME NANOPARTICLES EXHAUSTING INTRACELLUAR AMINO ACID FOR CANCER THERAPY AND METHODS THEREOF” (THE UNIVERSITY OF HONG KONG, priority 2023, published 2025).

Experiments:
Assay type in all cases: cell-based, human
[1] = system: K48-polyubiquitinated proteins in A549 cells; assay: Western blot of K48-polyubiquitinated proteins; settings: EBSS plus BTZ (10 μM), 2 h or 24 h
Description: The cells were plated in 12-well plates at 1×10^5 density and incubated for 24 h. […] Total protein concentration was determined by pierce BCA protein assay kit (Thermo Fischer Scientific, #23225). Equal amounts of proteins were loaded. SDS-PAGE electrophoresis was utilized to separate proteins, which were subsequently transferred to a nitrocellulose membrane through the wet transfer system. The membranes were blocked with 5% BSA in TBST at room temperature for 1 h and incubated with indicated primary antibodies overnight under 4° C. After washed with TBST, the blots were incubated with secondary antibodies for 1 h at room temperature. After washed with TBST three times, the proteins blots were visualized by Clarity Western ECL Substrate (BioRad) and captured by ChemiDoc Imaging System (BioRad). The following antibodies were used: K48-polyubiquitinated proteins (Cell signaling technology, #8081), p-S6K (Cell signaling technology, #9234), S6K (Cell signaling technology, #2708), mTOR (Cell signaling technology, #2983), β-Actin (Cell signaling technology, #4967), SQSTM1 (Abcam, ab91526), HRP-conjugated secondary antibody (Abcam, ab6789), HRP-conjugated secondary antibody (Abcam, ab6721).

[2] = system: proteasome; assay: Proteasome activity probe (Me4BodipyFL-Ahx3Leu3VS) flow cytometry; settings: A549 cells, EBSS plus BTZ (10 μM), 4 h, vs EBSS
Description: The cells were seeded in 12-well plates at 1×10^5 density. Unless explained, the cells were incubated with FITC-BSA (0.2 mg/mL), DQ-BSA (10 μg/mL), or Me4BodipyFL-Ahx3Leu3VS (1 μM) for 4 h for protein internalization, extracellular protein degradation, and proteasome activity analysis, respectively. TMR-Dextran (0.125 mg/mL) was applied for 1 h as a macropinocytosis marker. After washing with PBS three times, the cells were harvested and analyzed by Agilent NovoCyte Quanteon analyzer.

[3] = system: A549 cells; assay: DQ-BSA internalization and degradation analysis
Description: For in vitro fluorescent imaging detection, the cells were seeded on Nunc glass bottom confocal dishes (Thermo Fischer Scientific, USA) for 24 h. […] TMR-Dextran (0.125 mg/mL) was applied for 1 h as a macropinocytosis marker. Subsequently, after washed with PBS three times, the cells were fixed in 3.7% paraformaldehyde solution in PBS for 10 min, followed by washing with PBS three times and staining with DAPI according to the protocol (Thermo Fischer Scientific, D1306). After washing with PBS three times, the cells were mounted with SlowFade Diamond Antifade Mountant (Thermo Fischer Scientific, S36963). The in vivo TUNEL assay was conducted using the one-step TUNEL assay kit ([…], Beyotime, China). The Zeiss LSM 900 inverted confocal microscope equipped with 10×0.45 NA, 20×0.8 NA and 40×1.4 NA lens was employed to analyze intracellular fluorescent signals. The same exposure settings were used across all conditions in each individual experiment. The cells were seeded in 12-well plates at 1×10^5 density. Unless explained, the cells were incubated with FITC-BSA (0.2 mg/mL), DQ-BSA (10 μg/mL), or Me4BodipyFL-Ahx3Leu3VS (1 μM) for 4 h for protein internalization, extracellular protein degradation, and proteasome activity analysis, respectively. […] After washing with PBS three times, the cells were harvested and analyzed by Agilent NovoCyte Quanteon analyzer.

[4] = system: A549 cells; assay: Cytotoxicity assay (MTT); settings: BTZ (20 μM), EBSS vs DMEM, 24 h
Description: The cells were seeded in 96-well plates and cultured for 24 h. To investigate the influence of starvation on BTZ treatment, the cells were incubated with BTZ (20 μM) or DMSO, in complete DMEM or EBSS medium for 24 h. To investigate the combination effect of EIPA and BTZ, the cells were treated with a series of concentration of EIPA and BTZ in EBSS (plus 3% BSA) medium for 24 h. 10 μL of MTT (5 mg/mL) were added into each well and incubated for 2-4 h. Then the supernatant was changed with 100 μL DMSO to dissolve the precipitate. Subsequently, the absorbance of the solution at 570 nm and 630 nm was measured by a microplate reader (SpectraMax M4, Molecular Devices LLC, San Jose, CA). The cell viability was calculated by OD570-OD630 and normalized to DMSO control group.

[5] = system: A549 cells; assay: FITC-BSA protein internalization
Description: (§1) For in vitro fluorescent imaging detection, the cells were seeded on Nunc glass bottom confocal dishes (Thermo Fischer Scientific, USA) for 24 h. Unless explained, the cells were incubated with FITC-BSA (0.2 mg/mL), BSA-AF647 (0.05 mg/mL), or DQ-BSA (10 μg/mL) for 4 h for protein internalization and extracellular protein degradation analysis, respectively. TMR-Dextran (0.125 mg/mL) was applied for 1 h as a macropinocytosis marker. Subsequently, after washed with PBS three times, the cells were fixed in 3.7% paraformaldehyde solution in PBS for 10 min, followed by washing with PBS three times and staining with DAPI according to the protocol (Thermo Fischer Scientific, D1306). After washing with PBS three times, the cells were mounted with SlowFade Diamond Antifade Mountant (Thermo Fischer Scientific, S36963). The in vivo TUNEL assay was conducted using the one-step TUNEL assay kit (C1088, Beyotime, China). The Zeiss LSM 900 inverted confocal microscope equipped with 10×0.45 NA, 20×0.8 NA and 40×1.4 NA lens was employed to analyze intracellular fluorescent signals. The same exposure settings were used across all conditions in each individual experiment.
(§2) The cells were seeded in 12-well plates at 1×10^5 density. […] After washing with PBS three times, the cells were harvested and analyzed by Agilent NovoCyte Quanteon analyzer.

[6] = system: A549 cells; assay: mCherry-GFP-LC3 reporter and BSA-AF647 internalization (CLSM); settings: EBSS plus BTZ, 4 h, vs starved cells
Description: as §1, with “experiment. […]” for “experiment.”

[7] = system: SQSTM1; assay: Western blot of SQSTM1; settings: A549 cells, EBSS plus BSA medium, 4 h
Description: The cells were plated in 12-well plates at 1×10^5 density and incubated for 24 h. Subsequently, the cells received indicated treatments for 4 h and the cells were washed with 1×PBS three times and harvested with RIPA buffer (supplemented with Halt protease and phosphatase inhibitor cocktail, Thermo Fischer Scientific, USA). Total protein concentration was determined by pierce BCA protein assay kit (Thermo Fischer Scientific, #23225). Equal amounts of proteins were loaded. SDS-PAGE electrophoresis was utilized to separate proteins, which were subsequently transferred to a nitrocellulose membrane through the wet transfer system. The membranes were blocked with 5% BSA in TBST at room temperature for 1 h and incubated with indicated primary antibodies overnight under 4° C. After washed with TBST, the blots were incubated with secondary antibodies for 1 h at room temperature. After washed with TBST three times, the proteins blots were visualized by Clarity Western ECL Substrate (BioRad) and captured by ChemiDoc Imaging System (BioRad). […]

[8] = system: A549 cells; assay: TMR-Dextran internalization (macropinocytosis marker); settings: EBSS plus EIPA (50 μM, pretreated 1 h before)
Description: as §1, §2

Structure (SMILES) | level of K48-polyubiquitinated proteins [1] | fluorescence intensity of proteasome probe (proteasome activity) [2] | fluorescence intensity of DQ-BSA (internalized protein degradation) ([3]; A549 cells, EBSS plus BTZ (10 μM), 4 h, vs EBSS) | cell viability [4] | FITC-BSA protein internalization ([5]; EBSS plus BTZ, 4 h) | LC3 puncta (autophagy flux) [6] | percentage of BSA-AF647 colocalized with LC3 puncta [6] | SQSTM1 expression level [7] | fluorescence intensity of DQ-BSA (intracellular protein degradation) ([3]; A549 cells pre-incubated with DQ-BSA 1 h, then EBSS with 3% BSA plus EIPA 3 h, vs starvation group) | TMR-Dextran internalization (macropinocytosis) [8] | starvation-amplified FITC-BSA uptake ([5]; EBSS plus EIPA (50 μM, pretreated 1 h before), 1 h)
CC(C)C[C@H](NC(=O)[C@H](Cc1ccccc1)NC(=O)c1cnccn1)B(O)O [BTZ, bortezomib] | profound accumulation of polyubiquitinated proteins | remarkably reversed | substantially decreased | much more significant decrease of cell viability in starved cancer cells | further increased protein internalization | further enhanced | increased the percentage of BSA-AF647 colocalized with LC3 puncta | exacerbated starvation-induced SQSTM1 decrease | – | – | –
CCN(c1nc(N)c(C(=O)N=C(N)N)nc1Cl)C(C)C [EIPA, 5-(n-ethyl-n-isopropyl)-amiloride] | – | – | – | – | – | – | – | – | further increased the fluorescence intensity of DQ-BSA | inhibited | notably blocked
